# From patent US20250195521A1 (Revolution Medicines, Inc., priority 2020, published 2025)
# Like-named read-outs stand apart in the source and are kept apart here.
# How the values were obtained:
# [1] = target: NRAS Q61R (Homo sapiens (Human), UniProt P01111+P62937, Q61R); test: Ras-Raf disruption/FRET/MOA assay (BRAF RBD, Cyclophilin A); assay type: biochemical
# Procedure, shortened: (§1)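 Measured: compound-facilitated Cyclophilin A:Ras complex blocking RAF RBD binding. Conditions: 12.5 nM Ras-GMPPNP, 50 nM BRAF RBD, 25 μM CypA, 3 h plus 1.5 h detection. Output: IC50 from TR-FRET ratio.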
# [2] = target: KRAS G12V (Homo sapiens (Human), UniProt P01116+P62937, G12V); test: as above; assay type: biochemical; conditions: read-out: KRAS G12V FRET IC50
# Procedure, shortened: (§2)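 25 μM tagless Cyclophilin A, 12.5 nM His6-Ras-GMPPNP and 50 nM GST-BRAF RBD in HEPES pH 7.3 buffer with 5 mM MgCl2, with compound (10-point 3-fold series from 30 μM final) for 3 h at 25 °C. Anti-His Eu and anti-GST APC then added for 1.5 h. IC50 from TR-FRET ratio decrease versus DMSO.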
# [3] = target: KRAS G12S (Homo sapiens (Human), UniProt P01116+P62937, G12S); test: as above; assay type: biochemical; conditions: read-out: KRAS G12S FRET IC50
# Procedure, shortened: as §2
# [4] = target: NRAS WT (Homo sapiens (Human), UniProt P01111+P62937); test: as above; assay type: biochemical
# Procedure, shortened: as §1
# [5] = target: KRAS Q61H (Homo sapiens (Human), UniProt P01116+P62937, Q61H); test: as above; assay type: biochemical
# Procedure, shortened: as §2
# [6] = target: KRAS G13D (Homo sapiens (Human), UniProt P01116+P62937, G13D); test: as above; assay type: biochemical; conditions: read-out: KRAS G13D FRET data IC50
# Procedure, shortened: as §2
# [7] = target: KRAS WT (Homo sapiens (Human), UniProt P01116+P62937); test: as above; assay type: biochemical; conditions: read-out: KRAS WT FRET data IC50
# Procedure, shortened: as §2
# [8] = target: KRAS G12D (Homo sapiens (Human), UniProt P01116+P62937, G12D); test: as above; assay type: biochemical; conditions: read-out: KRAS G12D FRET IC50
# Procedure, shortened: as §2
# [9] = target: KRAS G12C (Homo sapiens (Human), UniProt P01116+P62937, G12C); test: as above; assay type: biochemical; conditions: read-out: KRAS G12C FRET IC50
# Procedure, shortened: as §2
# [10] = target: KRAS G13C (Homo sapiens (Human), UniProt P01116+P62937, G13C); test: as above; assay type: biochemical; conditions: read-out: KRAS G13C FRET IC50
# Procedure, shortened: as §2
# [11] = target: NRAS G12C (Homo sapiens (Human), UniProt P01111+P62937, G12C); test: as above; assay type: biochemical; conditions: read-out: NRAS G12C FRET data IC50
# Procedure, shortened: as §1
# [12] = tested on: NCI-H358 cells (K-Ras G12C); test: CellTiter-Glo cell viability, NCI-H358; assay type: cell-based, human; conditions: Homo sapiens, NCI-H358, 120 h, read-out: H358 Cell Viability IC50
# Procedure, shortened: (§3)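 Luminescence read on day 5 after ~30 min room-temperature equilibration; compounds added directly to plated cells. Values = (sample signal/avg DMSO)*100, four-parameter logistic fit.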
# [13] = tested on: Capan-1 cells (K-Ras G12V); test: CellTiter-Glo cell viability, Capan-1; assay type: cell-based, human; conditions: Homo sapiens, CAPAN-1, 120 h, read-out: Capan-1 Cell Viability IC50
# Procedure, shortened: as §3
# [14] = tested on: K-Ras G12C (NCI-H358 cells); test: Potency assay: pERK in NCI-H358 cells; assay type: cell-based, human; conditions: Homo sapiens, read-out: pERK EC50 (H358 KRAS G12C)
# Procedure, shortened: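 Cells plated the day before were exposed for 4 h at 37° C, 5% CO2 to a 10-point, 3-fold DMSO dilution series (10 mM top stock), in duplicate. Phospho-ERK was read by AlphaLISA SureFire Ultra or by In-Cell Western with DRAQ5 DNA stain, and IC50 came from a 4-parameter sigmoidal fit.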
# KRAS G12S, sequence (P01116 other isoform, or with tags, fused parts or gaps G12S): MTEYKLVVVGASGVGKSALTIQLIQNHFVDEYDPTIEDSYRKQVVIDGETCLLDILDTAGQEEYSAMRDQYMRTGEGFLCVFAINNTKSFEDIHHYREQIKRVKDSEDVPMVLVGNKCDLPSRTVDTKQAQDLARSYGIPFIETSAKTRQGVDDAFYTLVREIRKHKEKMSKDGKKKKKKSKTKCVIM
# KRAS G12S, sequence (P62937 whole entry): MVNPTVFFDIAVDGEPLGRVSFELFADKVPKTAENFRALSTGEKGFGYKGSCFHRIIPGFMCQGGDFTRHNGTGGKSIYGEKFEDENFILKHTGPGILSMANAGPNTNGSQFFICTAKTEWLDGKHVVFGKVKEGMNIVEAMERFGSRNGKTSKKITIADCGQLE
# KRAS Q61H, sequence (P01116 other isoform, or with tags, fused parts or gaps Q61H): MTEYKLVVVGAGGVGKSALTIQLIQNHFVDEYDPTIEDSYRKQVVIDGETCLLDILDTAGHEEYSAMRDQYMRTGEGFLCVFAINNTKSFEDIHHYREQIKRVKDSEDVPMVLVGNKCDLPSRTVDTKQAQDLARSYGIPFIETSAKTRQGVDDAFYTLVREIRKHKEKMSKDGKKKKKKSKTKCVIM
# KRAS Q61H, sequence (P62937 whole entry): as the sequence (P62937 whole entry) above
# KRAS G12D, sequence (P01116 other isoform, or with tags, fused parts or gaps G12D): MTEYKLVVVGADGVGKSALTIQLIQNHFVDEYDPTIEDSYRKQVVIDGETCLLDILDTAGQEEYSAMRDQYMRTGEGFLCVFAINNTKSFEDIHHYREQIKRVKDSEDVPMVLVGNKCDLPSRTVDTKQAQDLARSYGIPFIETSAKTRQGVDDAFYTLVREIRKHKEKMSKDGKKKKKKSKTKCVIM
# KRAS G12D, sequence (P62937 whole entry): as the sequence (P62937 whole entry) above
# KRAS G13C, sequence (P01116 other isoform, or with tags, fused parts or gaps G13C): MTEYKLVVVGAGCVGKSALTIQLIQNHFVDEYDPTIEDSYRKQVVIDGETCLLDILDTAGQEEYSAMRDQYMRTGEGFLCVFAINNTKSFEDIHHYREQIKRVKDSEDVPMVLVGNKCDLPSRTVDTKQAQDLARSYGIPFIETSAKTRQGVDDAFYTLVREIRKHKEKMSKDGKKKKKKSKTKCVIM
# KRAS G13C, sequence (P62937 whole entry): as the sequence (P62937 whole entry) above
# KRAS WT, sequence (P01116 other isoform, or with tags, fused parts or gaps): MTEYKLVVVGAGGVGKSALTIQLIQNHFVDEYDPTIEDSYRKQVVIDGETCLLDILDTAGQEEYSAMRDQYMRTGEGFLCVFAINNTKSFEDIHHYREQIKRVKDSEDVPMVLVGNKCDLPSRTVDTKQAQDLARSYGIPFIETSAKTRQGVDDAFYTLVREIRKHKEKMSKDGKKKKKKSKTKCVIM
# KRAS WT, sequence (P62937 whole entry): as the sequence (P62937 whole entry) above
# KRAS G12C, sequence (P01116-2 other isoform, or with tags, fused parts or gaps G12C): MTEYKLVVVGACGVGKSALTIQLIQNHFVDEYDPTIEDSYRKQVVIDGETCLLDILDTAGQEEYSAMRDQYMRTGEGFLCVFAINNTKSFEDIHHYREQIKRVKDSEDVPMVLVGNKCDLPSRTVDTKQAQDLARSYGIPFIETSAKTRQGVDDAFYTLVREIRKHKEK
# KRAS G12C, sequence (P62937 whole entry): as the sequence (P62937 whole entry) above
# KRAS G12V, sequence (P01116 other isoform, or with tags, fused parts or gaps G12V): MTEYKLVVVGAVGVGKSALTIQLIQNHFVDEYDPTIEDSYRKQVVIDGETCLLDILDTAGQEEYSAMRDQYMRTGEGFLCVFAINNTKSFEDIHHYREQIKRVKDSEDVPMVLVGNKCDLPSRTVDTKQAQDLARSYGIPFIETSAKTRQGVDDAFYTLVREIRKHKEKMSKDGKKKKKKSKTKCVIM
# KRAS G12V, sequence (P62937 whole entry): as the sequence (P62937 whole entry) above
# NRAS G12C, sequence (P01111 whole entry G12C): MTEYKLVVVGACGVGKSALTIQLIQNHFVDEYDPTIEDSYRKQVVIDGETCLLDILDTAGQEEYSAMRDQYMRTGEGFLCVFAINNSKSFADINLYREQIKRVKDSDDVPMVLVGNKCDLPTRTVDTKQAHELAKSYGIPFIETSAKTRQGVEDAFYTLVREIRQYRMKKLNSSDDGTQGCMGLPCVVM
# NRAS G12C, sequence (P62937 whole entry): as the sequence (P62937 whole entry) above
# NRAS WT, sequence (P01111 whole entry): as the sequence (P01111 whole entry G12C) above, with C12G counted along it
# NRAS WT, sequence (P62937 whole entry): as the sequence (P62937 whole entry) above
# NRAS Q61R, sequence (P01111 whole entry Q61R): as the sequence (P01111 whole entry G12C) above, with C12G, Q61R counted along it
# NRAS Q61R, sequence (P62937 whole entry): as the sequence (P62937 whole entry) above
# KRAS G13D, sequence (P01116 other isoform, or with tags, fused parts or gaps G13D): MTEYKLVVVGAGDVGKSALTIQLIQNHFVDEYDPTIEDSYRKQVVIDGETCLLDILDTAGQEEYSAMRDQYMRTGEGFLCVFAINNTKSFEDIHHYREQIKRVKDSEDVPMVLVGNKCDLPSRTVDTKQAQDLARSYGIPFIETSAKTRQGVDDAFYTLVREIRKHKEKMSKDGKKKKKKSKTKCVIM
# KRAS G13D, sequence (P62937 whole entry): as the sequence (P62937 whole entry) above
SMILES,IC50 [1] [nM],IC50 [2] [nM],IC50 [3] [nM],IC50 [4] [nM],IC50 [5] [nM],IC50 [6] [nM],IC50 [7] [nM],IC50 [8] [nM],IC50 [9] [nM],IC50 [10] [nM],IC50 [11] [nM],"IC50 ([12]; K-Ras G12C, 5-day treatment) [nM]","IC50 ([13]; K-Ras G12V, 5-day treatment) [nM]","EC50 ([14]; NCI-H358 cells, 4 hours) [µM]","EC50 ([14]; NCI-H358, 4 h) [µM]",IC50 [13] [nM],IC50 [12] [nM]
CCn1c(-c2cccnc2[C@H](C)OC)c2c3cc(ccc31)-c1csc(n1)C[C@H](NC(=O)[C@H](C(C)C)N(C)C(=O)N(C)C1COC1)C(=O)N1CCC[C@H](N1)C(=O)OCC(C)(C)C2 [Compound A334],100 to 1000,100 to 1000,100 to 1000,100 to 1000,10 to 100,100 to 1000,100 to 1000,100 to 1000,10 to 100,100 to 1000,10 to 100,10 to 100,10 to 100,–,–,–,–
CCn1c(-c2cccnc2[C@H](C)OC)c2c3cc(ccc31)-c1csc(n1)C[C@H](NC(=O)[C@H](C(C)C)N(C)C(=O)N1CC[C@H](O)C1)C(=O)N1CCC[C@H](N1)C(=O)OCC(C)(C)C2 [Compound A401],100 to 1000,100 to 1000,100 to 1000,100 to 1000,10 to 100,100 to 1000,100 to 1000,100 to 1000,10 to 100,100 to 1000,10 to 100,10 to 100,10 to 100,–,–,–,–
CCn1c(-c2cccnc2[C@H](C)OC)c2c3cc(ccc31)-c1cc(O)cc(c1)C[C@H](NC(=O)[C@H](C(C)C)N(C)C(=O)[C@H]1CCC(=O)O1)C(=O)N1CCC[C@H](N1)C(=O)OCC(C)(C)C2 [Compound A405],100 to 1000,10 to 100,10 to 100,10 to 100,10 to 100,10 to 100,10 to 100,100 to 1000,10 to 100,10 to 100,10 to 100,1000 to 10000,1000 to 10000,–,–,–,–
CCn1c(-c2cccnc2[C@H](C)OC)c2c3cc(ccc31)-c1csc(n1)C[C@H](NC(=O)[C@H](C(C)C)N(C)C(=O)N1CC3(CC(N(C)C(C)C)C3)C1)C(=O)N1CCC[C@H](N1)C(=O)OCC(C)(C)C2 [Compound A485],100 to 1000,100 to 1000,100 to 1000,100 to 1000,10 to 100,100 to 1000,100 to 1000,100 to 1000,100 to 1000,100 to 1000,100 to 1000,10 to 100,10 to 100,–,–,–,–
CCn1c(-c2cccnc2[C@H](C)OC)c2c3cc(ccc31)-c1csc(n1)C[C@H](NC(=O)[C@H](C(C)C)N(C)C(=O)N1CC3(CC(NCCOC)C3)C1)C(=O)N1CCC[C@H](N1)C(=O)OCC(C)(C)C2 [Compound A512],100 to 1000,100 to 1000,100 to 1000,100 to 1000,100 to 1000,100 to 1000,100 to 1000,1000 to 10000,100 to 1000,100 to 1000,100 to 1000,10 to 100,10 to 100,–,–,–,–
CCn1c(-c2cccnc2[C@H](C)OC)c2c3cc(ccc31)-c1csc(n1)C[C@H](NC(=O)[C@H](C(C)C)N(C)C(=O)N1CC([C@H](CO)OC)C1)C(=O)N1CCC[C@H](N1)C(=O)OCC(C)(C)C2 [Compound A515],100 to 1000,100 to 1000,100 to 1000,100 to 1000,10 to 100,100 to 1000,100 to 1000,100 to 1000,10 to 100,100 to 1000,10 to 100,–,10 to 100,< 5,–,–,–
CCn1c(-c2cccnc2[C@H](C)OC)c2c3cc(ccc31)-c1csc(n1)C[C@H](NC(=O)[C@H](C(C)C)N(C)C(=O)N1CC(S(=O)(=O)N(C)C)C1)C(=O)N1CCC[C@H](N1)C(=O)OCC(C)(C)C2 [Compound A551],100 to 1000,100 to 1000,100 to 1000,100 to 1000,10 to 100,100 to 1000,100 to 1000,100 to 1000,10 to 100,100 to 1000,10 to 100,–,–,–,< 5,10 to 100,–
CCn1c(-c2cccnc2[C@H](C)OC)c2c3cc(ccc31)-c1csc(n1)C[C@H](NC(=O)[C@H](C(C)C)N(C)C(=O)N(C)CCc1ccncc1)C(=O)N1CCC[C@H](N1)C(=O)OCC(C)(C)C2 [Compound A557],100 to 1000,100 to 1000,100 to 1000,100 to 1000,10 to 100,100 to 1000,100 to 1000,100 to 1000,10 to 100,100 to 1000,10 to 100,10 to 100,100 to 1000,–,–,–,–
CCn1c(-c2cccnc2[C@H](C)OC)c2c3cc(ccc31)-c1csc(n1)C[C@H](NC(=O)[C@H](C(C)C)N(C)C(=O)N1CCC[C@H](N(C)C)C1)C(=O)N1CCC[C@H](N1)C(=O)OCC(C)(C)C2 [Compound A569],100 to 1000,100 to 1000,100 to 1000,10 to 100,10 to 100,100 to 1000,100 to 1000,100 to 1000,10 to 100,100 to 1000,10 to 100,–,–,–,–,10 to 100,10 to 100
CCn1c(-c2cccnc2[C@H](C)OC)c2c3cc(ccc31)-c1csc(n1)C[C@H](NC(=O)[C@H](C(C)C)N(C)C(=O)N1CC(CN(C)C)C1)C(=O)N1CCC[C@H](N1)C(=O)OCC(C)(C)C2 [Compound A576],100 to 1000,100 to 1000,100 to 1000,100 to 1000,100 to 1000,100 to 1000,100 to 1000,100 to 1000,10 to 100,100 to 1000,10 to 100,10 to 100,10 to 100,–,–,–,–
